For one molecule, Kd results are on record in article PMC3922309, “Differential roles of tryptophan residues in conformational stability of Porphyromonas gingivalis HmuY hemophore” (BMC Biochemistry, 2014).

SMILES strings stand for the structures.

The target in experiment [1] is HmuY (Porphyromonas gingivalis, UniProt A2BCY8, W161Y). As to the kind of experiment: biochemical.
Experiment [2] deals with HmuY (Porphyromonas gingivalis, UniProt A2BCY8, W73Y). As to the kind of experiment: biochemical.
The target of experiment [3] is HmuY (Porphyromonas gingivalis, UniProt A2BCY8, W51Y). As to the kind of experiment: biochemical.
In experiment [4] the target is HmuY (Porphyromonas gingivalis, UniProt A2BCY8, W51A). As to the kind of experiment: biochemical.
Experiment [5] deals with HmuY (Porphyromonas gingivalis, UniProt A2BCY8, W73A). As to the kind of experiment: biochemical.
Experiment [6] has as its target T1, HmuY (Porphyromonas gingivalis, UniProt A2BCY8).
T1 construct: polypeptide lacking the first 25 residues, plasmid pHmuY11, expressed in Escherichia coli ER2566, purified from soluble lysate
As to the kind of experiment: heme titration of apoprotein (UV-visible / Trp fluorescence quenching), one-site model. The class given is binding.

The target in experiment [7] is HmuY (Porphyromonas gingivalis, UniProt A2BCY8, W161A). As to the kind of experiment: biochemical.
Chain of HmuY (Porphyromonas gingivalis, UniProt A2BCY8, W161A) (A2BCY8 26-216 W161A): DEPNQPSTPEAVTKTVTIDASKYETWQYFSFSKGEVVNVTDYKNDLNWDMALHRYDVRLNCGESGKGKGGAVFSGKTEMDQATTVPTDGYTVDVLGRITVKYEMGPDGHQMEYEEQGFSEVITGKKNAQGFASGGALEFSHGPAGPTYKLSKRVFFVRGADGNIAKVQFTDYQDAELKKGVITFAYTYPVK

Chain of HmuY (Porphyromonas gingivalis, UniProt A2BCY8, W51Y) (A2BCY8 26-216 W51Y): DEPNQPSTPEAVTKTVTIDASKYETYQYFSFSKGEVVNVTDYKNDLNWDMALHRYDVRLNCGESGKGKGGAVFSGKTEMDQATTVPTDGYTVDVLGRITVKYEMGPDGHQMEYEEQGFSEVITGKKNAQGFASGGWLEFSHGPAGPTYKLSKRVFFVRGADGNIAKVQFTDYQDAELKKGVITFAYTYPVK
Chain of HmuY (Porphyromonas gingivalis, UniProt A2BCY8, W161Y) (A2BCY8 26-216 W161Y): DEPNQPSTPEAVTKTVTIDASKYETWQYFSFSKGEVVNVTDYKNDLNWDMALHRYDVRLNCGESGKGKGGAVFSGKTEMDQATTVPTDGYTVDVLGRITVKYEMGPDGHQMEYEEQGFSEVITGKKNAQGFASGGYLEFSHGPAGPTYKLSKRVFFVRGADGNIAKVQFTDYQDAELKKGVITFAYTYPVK
Chain of HmuY (Porphyromonas gingivalis, UniProt A2BCY8, W73Y) (A2BCY8 26-216 W73Y): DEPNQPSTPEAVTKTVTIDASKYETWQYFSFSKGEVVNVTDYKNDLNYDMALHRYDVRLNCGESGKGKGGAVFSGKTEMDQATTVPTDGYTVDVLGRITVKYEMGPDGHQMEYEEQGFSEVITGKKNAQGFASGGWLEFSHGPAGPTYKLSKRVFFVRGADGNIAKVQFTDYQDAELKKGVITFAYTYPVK
Chain of HmuY (Porphyromonas gingivalis, UniProt A2BCY8, W51A) (A2BCY8 26-216 W51A): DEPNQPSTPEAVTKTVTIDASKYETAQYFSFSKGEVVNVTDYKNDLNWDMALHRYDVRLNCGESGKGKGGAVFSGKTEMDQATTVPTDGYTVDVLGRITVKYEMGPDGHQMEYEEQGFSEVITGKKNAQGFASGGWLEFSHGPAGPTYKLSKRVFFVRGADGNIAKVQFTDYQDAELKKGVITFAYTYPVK
T1 sequence (A2BCY8 entry or part of it): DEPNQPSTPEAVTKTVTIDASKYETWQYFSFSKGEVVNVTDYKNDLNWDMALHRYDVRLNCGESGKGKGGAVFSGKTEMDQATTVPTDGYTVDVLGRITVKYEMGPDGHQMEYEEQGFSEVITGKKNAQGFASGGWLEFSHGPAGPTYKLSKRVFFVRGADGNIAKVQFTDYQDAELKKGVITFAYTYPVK
Chain of HmuY (Porphyromonas gingivalis, UniProt A2BCY8, W73A) (A2BCY8 26-216 W73A): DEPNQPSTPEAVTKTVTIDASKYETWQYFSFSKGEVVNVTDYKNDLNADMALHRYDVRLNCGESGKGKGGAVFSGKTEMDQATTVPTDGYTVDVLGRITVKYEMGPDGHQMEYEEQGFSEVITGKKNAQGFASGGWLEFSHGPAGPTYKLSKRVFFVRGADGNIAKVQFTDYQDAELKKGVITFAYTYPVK

With `C=CC1=C(C)C2=Cc3c(C=C)c(C)c4[n]3[Fe]([Cl])[n]3c(c(C)c(CCC(=O)O)c3=CC3=NC(=C4)C(C)=C3CCC(=O)O)=CC1=N2` [heme], the dissociation constant (Kd) on HmuY [1] was 235 ± 11 nM; on HmuY [2], 238 ± 12 nM; on HmuY [3], 216 ± 7 nM; on HmuY [4], 303 ± 13 nM; on HmuY [5], 229 ± 8 nM; on HmuY [6], 296 ± 12 nM. Also, at HmuY [7], the affinity, expressed as Kd, was 323 ± 16 nM.
